Experimental data taken from patent US20120213706A1, “RECONSTITUTED TUMOR MICROENVIRONMENT FOR ANTICANCER DRUG DEVELOPMENT” (UNIVERSITY OF MEDICINE AND DENTISTRY OF NEW JERSEY, priority 2009, published 2012).
Numbered stars: 1 amine (or outer) side, 2 acyl side, 3 side chain; on linkers, the order of the positions; unused ones are H or OH. Bridge positions count the residues as written; N and C are the ends. Square brackets hold non-standard residues; d marks the D form. Peptide text beside a SMILES is read from it. * marks the point of attachment. X1 = CC[C@H](C)[C@@H](N[*:1])[C@@H](O)CC(=O)O[C@H](C(=O)[C@H](C)C(=O)[*:2])C(C)C; NMeY = CN[C@@H](Cc1ccc(O)cc1)C(=O)O; dNMeL = CN[C@H](CC(C)C)C(=O)O; Pyruvoyl = CC(=O)C(=O)*

Assays:
Assay type in all cases: cell-based
Jak/Stat3 signaling = Jak/Stat3 signaling in tumor cells following treatment; settings: following dehydrodidemnin B treatment
[1] = test system: tumor cells in the reconstituted tumor microenvironment; assay: growth of tumor cells in the reconstituted tumor microenvironment; settings: tumor cells established within the reconstituted tumor microenvironment
Method: The three cell system in Examples 1 and 2 is prepared and used to test standard chemotherapeutic agents for activity against cancer cell lines, such as the breast cancer cell lines MDAMB231 and MDAMB435 representing basal subtype and MCF7 and SKBR3 representing luminal subtype of breast cancer. Reconstitution is carried out in 96 well plates by co-culturing a fixed number of tumor cells and carcinoma-associated fibroblast-like cells plus TAMs either alone or admixed with differing amounts of cells representing cell types in tumor milieu. Tumor growth is monitored at these sites in accordance with the foregoing. As the tumor cells express luciferase, tumor growth is monitored even at early time points by bioluminescence imaging following injection of D-luciferin on a Kodak MM2000 Imager. Again, all the tumor cell lines tested in culture are tested in this assay.
The reconstituted system is used to identify synergistic combinations using a panel of standard chemotherapeutic agents and Jak/STAT3 inhibitors. The Chou Talalay combination index analysis is used and the data analyzed using Calcusyn software (Biosoft ver 3). […] Growth of tumors is monitored by bioluminescence imaging using a KODAK […] Imaging station as described earlier. […]

[2] = test system: FSP positive tumor stroma; assay: FSP positive tumor stroma after treatment; settings: fibroblast surface protein (FSP) as marker for tumor stroma
tumor cells = assay: tumor cell demise following treatment; settings: following dehydrodidemnin B treatment
Excerpt: Accordingly, the instant invention is useful in drug screening assays for known and novel therapeutics targeting either the tumor cell or components of the tumor cell environment.

CC[C@H](C)[C@H]1NC(=O)[C@@H](NC(=O)[C@@H](CC(C)C)N(C)C(=O)[C@@H]2CCCN2C(=O)C(C)=O)[C@@H](C)OC(=O)[C@H](Cc2ccc(OC)cc2)N(C)C(=O)[C@@H]2CCCN2C(=O)[C@H](CC(C)C)NC(=O)[C@@H](C)C(=O)[C@H](C(C)C)OC(=O)C[C@@H]1O [dehydrodidemnin B] (Pyruvoyl-P[dNMeL]T[X1]LP[NMeY](Me); ester 3-C)
Jak/Stat3 signaling in tumor cells (Jak/Stat3 signaling): inhibition of Jak/Stat3 signaling | growth of tumor cells [1]: can be inhibited | growth of tumor cells ([1]; listed as Dehydrodidemnin B): inhibited | FSP positive tumor stroma [2]: decreased FSP positive tumor stroma | fate of tumor cells after inhibition of Jak/Stat3 signaling (tumor cells): led to the demise of tumor cells
